Data reported in US10765654B2, “Methods and compounds for treating cancer” (University of Vermont and State Agricultural College, priority 2011, dated 2020).

Legend:
[1] = system: OG35 GSCs; assay: Orthotopic graft in athymic mice, comparison of priming, concurrent and salvage regimens; assay type: in vivo; conditions: OG35 GSC engrafted mice; priming with GTA two days prior to TMZ treatment
Method: Cells (2,500 cells in 4 μl) were injected into the right striatum (1 mm anterior, 1.5 mm lateral to bregma, 3.5 mm deep) of adult athymic mice (8-week-old, 25-28 g). GTA (5.8 g/kg plus 10% v/v Ora-Sweet SF® (Paddock Laboratories, Minneapolis, Minn.) was administered intragastrically daily starting on the third post-operative day. TMZ (20 mg/kg) was administered intragastrically in an oral suspension vehicle containing 2.5 mg/ml Povidone K30, 0.013% citric acid, 50% Ora-Plus® (Paddock Laboratories, Minneapolis, Minn.), 50% Ora-Sweet SF® (Paddock Laboratories, Minneapolis, Minn.) on days 5, 7, 9, 11, and 13. Mice receiving the combined GTA/TMZ therapy received the TMZ in the morning (˜7-8 AM) and GTA in the evening (˜6-7 PM).
Orthotopic grafting was performed as described above in Example 6. In addition to the treatments described above, the following treatments were tested: 1) concurrent (GTA and TMZ on days 5, 7, 9, 11, 13, with GTA alone on days 6, 8, 10, 12 and continuous GTA afterwards), and 2) salvage (GTA administered daily after single course of TMZ on days 5, 7, 9, 11, and 13).

[2] = system: Oli-Neu cells, an oligodendrocyte progenitor cell (OPC) line; assay: Cell cycle profile by propidium iodide staining and flow cytometry; assay type: cell-based, murine; conditions: 0.25% GTA for 24 hours; Sato's medium; compared with GSCs
Method: (§1) Cell cycle profiles were visualized by propidium iodide (PI) staining as previously described (Perez-Martinez & Jaworski (2005) J Neurosci 25:4917-29). OG35, OG33 and mouse neural stem cells were grown in stem cell medium (SCM; DMEM/F12, B27, 20 ng/ml ea bFGF & EGF) while the oligodendrocyte progenitor cell line, Oli-neu (Jung et al. (1995) Eur J Neurosci 7:1245-65) was grown in Sato's medium (DMEM supplemented with 100 μg/ml apotransferrin, 5 μg/ml insulin, 60 nM triiodothyronine, 30 nM sodium selenite, 100 μM putrescine, 1% horse serum, and 25 μg/ml G418). […] after 0.25% (v/v) GTA treatment, cells were trypsinized, recovered by centrifugation, re-suspended (10^6 cells/ml) in a low-salt PI solution ([…] polyethylene glycol PEG 8000, […], 180 U/ml RNase A, 0.1% Triton X-100, and 4 mM sodium citrate), and incubated at 37° C. for 20 minutes. After addition of an equal volume of high-salt PI solution ([…] polyethylene glycol PEG 8000, […], 180 U/ml RNase A, 0.1% Triton X-100, and 400 mM NaCl) and incubation at 4° C. for 1 hour, cell cycle profiles were recorded by flow cytometry (BD LSR 11 Flow Cytometer, BD Biosciences; Franklin Lakes, N.J.).

[3] = system: OG33 cells; assay: Immunocytochemistry after 5 days in differentiation medium with or without GTA; assay type: cell-based, human; conditions: 0.25% GTA, 5 days in DM
Method: (§2) Immunocytochemistry was performed as described (Perez-Martinez & Jaworski (2005) J Neurosci 25:4917-29). Briefly, OG33 and OG35 cells were plated into differentiaion medium (DMEM, 10% FBS) in the absence or presence of 0.25% GAT and fixed with 2% paraformaldehyde after 5 days. Antibodies: rabbit anti-human ASPA (1500×; GTX13389; GeneTex, Irvine, Calif.), Rabbit anti-mouse ASPA (2,000× for western blot) (Madhavarao et al., 2004 Comp Neurol 472:318-29), rabbit anti-mouse AceCS1 (15,000× western blot; 1,500× immunocytochemistry) (Ariyannur et al. 2010 J Comp Neurol 518:2952-77), rabbit anti-mouse 2′,3′-cyclic nucleotide 3′-phosphodiesterase (CNPase; 500×sc-30158; Santa Cruz Biotechnology, Santa Cruz, Calif.). Cy3- (500×) conjugated secondary antibodies were obtained from Jackson ImmunoResearch (West Grove, Pa.). Immunocytochemistry for Histone 3/Tubulin/poly(ADP-ribose) polymerase (PARP) was performed using the PathScan Multiplex IF kit per manufacturer's instructions (Cell Signaling Technology, Danvers, Mass.).

[4] = system: OG35 cells; assay: as above; assay type: cell-based, human; conditions: 0.25% GTA, 5 days in DM
Method: as §2

[5] = system: GBM12 GSCs; assay: Cell cycle profile of GBM-derived GSC spheres (flow cytometry); assay type: cell-based, human; conditions: 0.25% GTA in SCM for 24 hours; all GSCs except GBM8
Method: as §1
(§3) Flow cytometry was performed 24 hours after GTA treatment as described in prior examples herein.

[6] = system: GBM8 GSCs; assay: as above; assay type: cell-based, human; conditions: 0.25% GTA in SCM for 24 hrs
Method: as §1, §3

[7] = system: GBM8 GSCs; assay: Growth dynamics, unbiased trypan blue exclusion based cytometry; assay type: cell-based, human; conditions: GTA; GBM8 cells grown in DM
Method: Growth dynamics were assessed using unbiased trypan blue exclusion based cytometry. Cells were plated (at 10,000 cells per well of a 24-well plate) directly in the absence or presence of 0.25% GTA. After 1, 3, and 5 days of treatment, cells were typsinized, collected via centrifugation, and counted according to the manufacturer's instructions (Countess Automated Cell Counter; Invitrogen Life Technologies; Carlsbad, Calif.).
Growth dynamics was determined as described in prior examples herein.

[8] = system: OG35 oligodendroglioma stem cells; assay: Cell cycle profile by propidium iodide staining and flow cytometry; assay type: cell-based, human; conditions: 0.25% GTA in SCM for 24 hours; OG35
Method: as §1

[9] = system: OG33 oligodendroglioma stem cells; assay: as above; assay type: cell-based, human; conditions: 0.25% GTA in SCM for 24 hours; OG33
Method: as §1

## CC(=O)OCC(COC(C)=O)OC(C)=O [GTA, glyceryltriacetate]
[1]
  Survival versus TMZ alone: increased survival over TMZ alone
[2]
  Cell cycle arrest: less effect
[3]
  Apoptosis (cleaved PARP, Asp214): no cleaved PARP
  Proliferation (phospho-histone H3 [Ser 10]): decreased phospho-histone H3
[4]; OG35
  Apoptosis (cleaved PARP, Asp214): no cleaved PARP
  Nuclear expression of ASPA: increase the nuclear expression of ASPA
  Proliferation (phospho-histone H3 [Ser 10]): decreased phospho-histone H3
[4]; primarily in OG35 cells
  GSC differentiation (expression of CNPase, a marker of mature oligodendrocytes): increased expression of CNPase
[5]
  Growth arrest (increased proportion of cells in G0/G1 and decreased proportion in S phase): exerted growth arrest
[6]
  Growth arrest: did not induce growth arrest
[7]
  Growth dynamics: reduced growth dynamics
[8]
  Cell cycle arrest: induced cell cycle arrest
[9]
  Cell cycle arrest: induced cell cycle arrest
